From patent US8709398B2, “Probiotic Bifidobacterium strains” (Alimentary Health Limited, priority 2007, dated 2014)

The compounds below were run on B. longum AH1205 (assay: Antibiotic sensitivity, minimum inhibitory concentration (MIC)). Conditions: against B. longum AH1205.
Assay type: cell-based, Bifidobacterium longum

minimum inhibitory concentration (MIC) | Structure (SMILES)
0.032 | CCC[C@@H]1C[C@@H](C(=O)N[C@@H]([C@H]2O[C@H](SC)[C@H](O)[C@@H](O)[C@H]2O)[C@H](C)Cl)N(C)C1 [clindamycin]
> 256 | Cc1ncc([N+](=O)[O-])n1CCO [metronidazole]

Structure (SMILES) | minimum inhibitory concentration (MIC)
CN[C@H](CC(C)C)C(=O)N[C@H]1C(=O)N[C@@H](CC(N)=O)C(=O)N[C@H]2C(=O)N[C@H]3C(=O)N[C@H](C(=O)N[C@H](C(=O)O)c4cc(O)cc(O)c4-c4cc3ccc4O)[C@H](O)c3ccc(c(Cl)c3)Oc3cc2cc(c3O[C@@H]2O[C@H](CO)[C@@H](O)[C@H](O)[C@H]2O[C@H]2C[C@](C)(N)[C@H](O)[C@H](C)O2)Oc2ccc(cc2Cl)[C@H]1O [vancomycin] | 0.75
